In PubChem BioAssay (NCI):
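Where inhibition never reached the appropriate level, the endpoint shown equals the highest concentration tested. Otherwise, values were interpolated linearly from a five-concentration, 48-hour dose response in 96-well plates. TGI is the concentration that stops growth completely.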

Tests used:
Assay in all cases: NCI-60 cell line screen, 48 h
HS 578T breast = system: HS 578T breast
NCI/ADR-RES ovarian = system: NCI/ADR-RES ovarian
SK-MEL-28 melanoma = system: SK-MEL-28 melanoma
SNB-19 CNS = system: SNB-19 CNS
SNB-75 CNS = system: SNB-75 CNS
COLO 205 colon = system: COLO 205 colon
NCI-H226 lung = system: NCI-H226 lung
T-47D breast = system: T-47D breast

Compound | TGI (HS 578T breast) [µM] | TGI (NCI/ADR-RES ovarian) [µM] | TGI (SK-MEL-28 melanoma) [µM] | TGI (SNB-19 CNS) [µM] | TGI (SNB-75 CNS) [µM] | TGI (COLO 205 colon) [µM] | TGI (NCI-H226 lung) [µM] | TGI (T-47D breast) [µM]
CC(C)(C)OC(=O)N1CCC(NC(=O)NC2CCN(C(=O)OC(C)(C)C)CC2)CC1 | > 100 | > 100 | > 100 | > 100 | > 100 |  |  | 
C[C@]12CC/C(=N\O)C=C1CC[C@@H]1[C@@H]2CC[C@]2(C)C(=N/O)/C(=C/c3ccncc3)C[C@@H]12 | > 100 | > 100 | > 100 | > 100 | > 100 | > 100 | 87.3 | 88.5
CN(C(=O)c1ccc(Cl)cc1)C(=S)N1CCN(c2ccccc2)CC1 | 95.6 |  | > 100 | > 100 | > 100 | > 100 | > 100 | > 100
Cc1nn(C(=O)c2ccncc2)c2c1C(c1ccc([N+](=O)[O-])cc1)SC(N)=N2 (stereo unspecified) | > 100 | > 100 | > 100 | > 100 | > 100 | > 100 | > 100 | > 100
S=C(S)N1CCN(c2ccccc2)CC1 | > 100 | > 100 | > 100 | > 100 | > 100 | > 100 |  | > 100
COc1ccc(C(=O)N(Cc2cccnc2)C(=S)N(Cc2cccnc2)C(=O)c2ccc(OC)cc2)cc1 | > 100 | > 100 | > 100 | > 100 | 42.9 | > 100 | > 100 | > 100
C=CC(C)(C)n1cc(C2=C(O)C(=O)C(c3c(CC=C(C)C)[nH]c4ccccc34)=C(O)C2=O)c2ccccc21 | 25 | 9.09 | 2.03 | 10.8 | 4.1 | 3.23 | 3.64 | 7.59
CCCCN1CCC(O)(c2cc(C(=O)O)[nH]c2-c2cc(C)no2)C1=O (stereo unspecified) | > 100 | > 100 | > 100 | > 100 | > 100 | > 100 |  | 
CSS(C)(=O)=O | > 100 | > 100 | 48 | > 100 | 94.1 | 40.1 | 43.5 | 57.2
CCCCSC1=N/C(=C\c2ccc(N(C)C)cc2)C(Cl)=N1 | > 100 | > 100 | > 100 | > 100 | > 100 | > 100 | > 100 | > 100
CCNC1=C(NC(=O)CCl)C(=O)c2ccccc2C1=O | 60.6 | 44 | 31.7 | 54.5 | > 10 | > 10 | 48.2 | 44.7
O=C(Nc1nccs1)NS(=O)(=O)n1cnc2ccccc21 | > 100 | > 100 | > 100 | > 100 | > 100 | > 100 | > 100 | > 100
COc1cc(OC2OC(CO)C(O)C(O)C2O)c2c(c1)O[C@@H]1[C@H](O)Oc3cc(OC)c(OC)cc3[C@]1(O)C2=O (stereo partly specified) | > 25 | > 25 | > 25 | > 25 | > 25 | > 25 | > 25 | > 25
CN(/N=C/c1ccccc1C(=O)O)C1=NCCCCN1 | > 100 | > 100 |  | > 100 | > 100 | > 100 | > 100 | > 100
Fc1cc2nc3n(c2cc1F)C(c1c(Cl)cccc1Cl)SC3 (stereo unspecified) | 53.2 | 37.7 | 28.6 | 27 | 26.8 | 36.3 | 45.7 | 31.7
Nc1nc(Cl)c(C=O)c(NCC2(CO)CCC2)n1 | 67.9 | > 100 | > 100 | 34.4 | 67.7 | 78.3 | 34 | > 100
C[C@H]1[C@H](C)CC[C@]2(C(=O)OC3OC(CO)C(O)C(O)C3O)CC[C@]3(C)C(=CC[C@@H]4[C@@]5(C)C[C@@H](O)[C@@H]6OC(=O)c7cc(O)c(O)c(O)c7-c7c(cc(O)c(O)c7O)C(=O)OC[C@]6(CO)[C@@H]5CC[C@]43C)[C@H]12 (stereo partly specified) | > 100 | > 100 | > 100 | > 77.9 | > 100 | > 100 | > 100 | > 100
Cc1ccc2c(=O)c(C(=O)NNC(=S)NC3CCCCC3)c[nH]c2n1 | > 100 | > 100 | > 100 | > 100 |  | > 100 | > 100 | > 100
Nc1nc(Cc2ccccc2)nc(Cc2ccccc2)c1-c1ccccc1 | > 100 | 55 | > 100 | > 100 |  |  | 53.4 | > 100
COc1ccc(NC(=O)CC(=O)N2N=C(C)C(N=Nc3ccc(C(=O)O)cc3)C2=O)cc1 (stereo unspecified) | > 100 | > 100 | > 100 | > 100 | > 100 | > 100 |  | > 100
CC(C)C1=CC23CCC4C(C)(C(=O)O)CCCC4(C)C2CC1C1C(=O)N(c2cccc(N4C(=O)C5C6CC7C8(C)CCCC(C)(C(=O)O)C8CCC7(C=C6C(C)C)C5C4=O)c2)C(=O)C13 (stereo unspecified) | 24.6 |  | 21.6 |  |  | 23.8 | 32.5 | 33.7
COc1ccc(/C=C2/SC(c3c(O)ccc4ccccc34)N(NC(=O)CCCCCCCCC(=O)NN3C(=O)/C(=C\c4ccc(OC)c(OC)c4)SC3c3c(O)ccc4ccccc34)C2=O)cc1OC (stereo unspecified) |  | 32.1 | > 100 | > 91.7 | > 100 | > 29.9 | 15.9 | 48.9
NS(=O)(=O)c1nnc(NC(=O)/C=C/C(=O)O)s1 | > 100 | > 100 | > 100 | > 100 |  | > 100 |  | > 100
O=C(c1cccc2cc(O)ccc12)c1cn(CCN2CCOCC2)c2ccccc12 |  |  | > 100 | > 100 |  | 78.8 | 87.3 | > 100
C=C(C1=CC(=O)C(C)(C)O1)[C@@H]1CC=C([C@@H]2CC[C@H]3[C@@]2(C)CC[C@H]2C(C)(C)C(=O)[C@H](OC(=O)CC(C)(O)CC(=O)O)C[C@]32C)[C@H](O)O1 (stereo partly specified) | 66.7 | 51.3 |  | > 75 |  | 24.5 | 31.3 | 
